The numbers were not newly measured in US8227637B2, “Stable, water-soluble near infrared dyes” (Epolin, Inc., priority 2008, dated 2012), which cites them from elsewhere.

Each structure is given as a SMILES string.

The conditions of the data set: SbF6 salt of U.S. Pat. No. 3,709,830, statement in background.

Turning to `OCCN(CCO)c1ccc([N+](=C2C=CC(=[N+](c3ccc(N(CCO)CCO)cc3)c3ccc(N(CCO)CCO)cc3)C=C2)c2ccc(N(CCO)CCO)cc2)cc1.[F][Sb-]([F])([F])([F])([F])[F].[F][Sb-]([F])([F])([F])([F])[F]` [N,N′,N″,N′″-tetrakis(4-[di(2-hydroxyethyl)amino]-phenyl)-p-benzoquinonebis(imoniumhexafluoro-antimonate)], the water solubility result was “not water-soluble”.
